# Measurements: article PMC9415509, “Pro-Apoptotic Antitumoral Effect of Novel Acridine-Core Naphthoquinone Compounds against Oral Squamous Cell Carcinoma” (Molecules, 2022)
# “And” between values parts separate entries of the source, which are not always exact repeats. Equal values may be shown once.
# Legend:
# C57BL/6 female mice = assay: In vivo acute toxicity study; conditions: 14 days
# Method: In vivo acute toxicity study. The acute toxicity study for compound 4e was performed in twelve-week-old C57BL/6 female mice via intraperitoneal injection and was approved by the University Animal Ethics Board under registration number 982. All experiments were performed in accordance with Brazilian guidelines and regulations. Dosing and analysis were performed according to 423 OECD guidelines and reviewed by. Each animal group had n = 3 or 4 (as indicated) and received only one intraperitoneal injection (Day 0) of compound 4e dissolved in […] PBS and 3% DMSO. The control group animals received only 3% DMSO in PBS. The first dose of the compound was 100 mg/kg. Subsequent dose levels (200 mg/kg and 400 mg/kg) were determined based on the result obtained from the previous dosing. The animals were examined every day, twice a day, for mortality and morbidity for 14 days, when all animals were anesthetized (ketamine 100 mg/kg and xylazine 10 mg/kg) followed by cervical dislocation. Gross necropsy and histology of the main organs were performed. The animals’ body weights and average food consumption were measured every 7 days. As an indication of morbidity, the following signs were assessed: tremors; convulsion; salivation; diarrhea; lethargy; coma; pain signs; increased rear arching; and mobility impairment. The necropsy included an examination of the external characteristics of the carcass; external body orifices; the abdominal, thoracic, and cranial cavities; organs/tissues of the liver, thymus, right kidney, […], heart, and lung. Major organs were analyzed by histopathology. For more details, see Supplementary Methods.
# SCC9 cells [1] = assay: SubG1 analysis (DNA fragmentation), flow cytometry; type: cell-based, human; conditions: SCC9, 72 h of treatment, PI staining
# Method: Cell cycle and SubG1 analysis. To evaluate the action of compound 4e on the cell cycle and DNA fragmentation, cells of the SCC9 cell line were plated in a 6-well plate (5 × 10^5 cells/well). After 48 (cell cycle) or 72 h (DNA fragmentation) of treatment, the cells were trypsinized and stained with propidium iodide (75 µM) in the presence of NP-40. The DNA content was analyzed by collecting 10,000 events using a FACScalibur flow cytometer. The data were analyzed using CellQuest (BD Biosciences, Franklin Lakes, NJ, USA) and FlowJo (Tree Star Inc., Ashland, OR, USA) software as in [49].
# SCC9 cells [2] = assay: Phosphatidylserine exposure analysis (Annexin V/PI); type: cell-based, human; conditions: SCC9, 48 h
# Method: Phosphatidylserine exposure analysis (apoptosis). Cells of the SCC9 cell line were plated in 6-well plates (5 × 10^5 cells/well), trypsinized 48 h after treatment, labeled using the Annexin V-FITC Apoptosis Detection Kit according to the manufacturer’s protocol (#BMS500FI/300, Invitrogen), and analyzed by FACScalibur flow cytometry as in [50]. Furthermore, 5 × 10^4 SCC9 cells were plated in a 24-well plate containing 1 mL of DMEM/F12 with 10% FBS per well. CellEvent™ Caspase-3/7 Reagent (#R37111, Invitrogen) was diluted in a culture medium according to the manufacturer’s instructions. […] The cells were analyzed by flow cytometry at the time of 48 h of treatment.
# SCC9-LC3-GFP cells = assay: Autophagy assay (LC3-GFP puncta); type: cell-based, human; conditions: 4e 2 × IC50, 48 h; CPP 20% (v/v) 4–6 h
# Method: Autophagy assay. To determine if compound 4e induces autophagy, SCC9 cells were stably transduced with LC3-GFP expressing plasmid. For the generation of SCC9 cell lines harboring LC3-GFP, HEK293FT cells were transfected with 3 µg of each helper plasmids (pMDLglpRRE, pHCMV g, and pRSVrev) and 8 µg of the pLV-CMV-SV40-Puro-GFP-LC3 using calcium phosphate and 25 µM chloroquine. Twenty-four hours later, a lentivirus-containing medium was harvested, supplemented with 8 µg/mL of Polybrene, and used to transduce SCC9 cells. Twenty-four hours later, the transduced cells were selected with 5 µg/mL of Puromycin for 7 days. The cells were then cultured with 2.5 µg/mL Puromycin for further experiments. The lentiviral construct encoding pLV-CMV-SV40-Puro-GFP-LC3 was a gift from Dr. SilvyaStuchi Maria Engler. […] As a positive control, calcium phosphate precipitates (CPP) were prepared by adding CaCl2 dropwise to Na2HPO4 (in Hepes, pH 7.05) as previously described. CPP 20% (v/v) was administrated to the cells 4–6 h before analysis.
compound,measurement,setting,value
"CC1(C)CC(=O)C2=C(C1)NC1=C(C(=O)c3ccccc3C1=O)C2c1ccc(Cl)cc1Cl (stereo not drawn) [4e, 12-(2,4-dichlorophenyl)-3,3-dimethyl-3,4-dihydrobenzo[b]acridine-1,6,11(2H,5H,12H)-trione]",Change in Body Weight,C57BL/6 female mice; 100 mg/kg single i.p. dose,Absent
same,Change in Food Consumption,C57BL/6 female mice; 100 mg/kg single i.p. dose,Absent
same,Gross Necropsy,C57BL/6 female mice; 100 mg/kg single i.p. dose,No alteration
same,Histology,C57BL/6 female mice; 100 mg/kg single i.p. dose,No significant alteration in comparison to control
same,Morbidity,C57BL/6 female mice; 100 mg/kg single i.p. dose,Absent
same,Change in Body Weight,C57BL/6 female mice; 200 mg/kg single i.p. dose,Absent
same,Change in Food Consumption,C57BL/6 female mice; 200 mg/kg single i.p. dose,Absent
same,Gross Necropsy,C57BL/6 female mice; 200 mg/kg single i.p. dose,No alteration
same,Histology,C57BL/6 female mice; 200 mg/kg single i.p. dose,Presence of mild Perivascular and periportal lymphocyte focus and Bronchus-Associated Lymphoid Tissue (BALT)
same,Morbidity,C57BL/6 female mice; 200 mg/kg single i.p. dose,Absent
same,Change in Body Weight,C57BL/6 female mice; 400 mg/kg single i.p. dose,Absent
same,Change in Food Consumption,C57BL/6 female mice; 400 mg/kg single i.p. dose,Absent
same,Gross Necropsy,C57BL/6 female mice; 400 mg/kg single i.p. dose,No alteration
same,Histology,C57BL/6 female mice; 400 mg/kg single i.p. dose,Presence of mild Perivascular and periportal lymphocyte focus and Bronchus-Associated Lymphoid Tissue (BALT)
same,Morbidity,C57BL/6 female mice; 400 mg/kg single i.p. dose,Absent
same,"DNA fragmentation (Sub-G1 DNA-content), cells",SCC9 cells [1],25.5% and ~ 25%
same,Annexin V and Annexin V + PI staining,SCC9 cells [2],increased single (Annexin V) and double (Annexin V + PI) staining
same,LC3-GFP puncta formation (autophagy),SCC9-LC3-GFP cells,neither DMSO nor 4e were able to induce this cell death process
